Test results published in the NIST ThermoML archive (doi:10.1016/j.jct.2017.08.004).

Columns and labels:
[1] = Molar enthalpy of transition or fusion; settings: Crystal; DSC
[2] = for molar entropy: 101.33 kPa; for Normal melting temperature: DTA

OC[C@H](O)C(O)[C@@H](O)CO [L-(-)-arabitol]
Settings | Molar enthalpy of transition or fusion [kcal/mol]
[1] | 8.79

[2]
Settings | molar entropy [J/K/mol]
1 K, Crystal, relaxation calorimetry | 0.0005209
2 K, Crystal, relaxation calorimetry | 0.002213
3 K, Crystal, relaxation calorimetry | 0.006332
4 K, Crystal, relaxation calorimetry | 0.0143
5 K, Crystal, relaxation calorimetry | 0.0278
6 K, Crystal, relaxation calorimetry | 0.04885
7 K, Crystal, relaxation calorimetry | 0.07993
8 K, Crystal, relaxation calorimetry | 0.1243
9 K, Crystal, relaxation calorimetry | 0.1854
10 K, Crystal, relaxation calorimetry | 0.2663
15 K, Crystal, relaxation calorimetry | 1.038
20 K, Crystal, relaxation calorimetry | 2.479
25 K, Crystal, relaxation calorimetry | 4.532
30 K, Crystal, relaxation calorimetry | 7.074
35 K, Crystal, relaxation calorimetry | 9.99
40 K, Crystal, relaxation calorimetry | 13.19
45 K, Crystal, relaxation calorimetry | 16.61
50 K, Crystal, relaxation calorimetry | 20.19
55 K, Crystal, relaxation calorimetry | 23.88
60 K, Crystal, relaxation calorimetry | 27.65
65 K, Crystal, relaxation calorimetry | 31.48
70 K, Crystal, relaxation calorimetry | 35.36
75 K, Crystal, relaxation calorimetry | 39.27
80 K, Crystal, relaxation calorimetry | 43.19
85 K, Crystal, relaxation calorimetry | 47.12
90 K, Crystal, relaxation calorimetry | 51.04
95 K, Crystal, relaxation calorimetry | 54.97
100 K, Crystal, relaxation calorimetry | 58.89
110 K, Crystal, relaxation calorimetry | 66.69
120 K, Crystal, relaxation calorimetry | 74.44
130 K, Crystal, relaxation calorimetry | 82.11
140 K, Crystal, relaxation calorimetry | 89.7
150 K, Crystal, relaxation calorimetry | 97.21
160 K, Crystal, relaxation calorimetry | 104.63
170 K, Crystal, relaxation calorimetry | 111.97
180 K, Crystal, relaxation calorimetry | 119.24
190 K, Crystal, relaxation calorimetry | 126.44
200 K, Crystal, relaxation calorimetry | 133.58
210 K, Crystal, relaxation calorimetry | 140.66
220 K, Crystal, relaxation calorimetry | 147.69
230 K, Crystal, relaxation calorimetry | 154.69
240 K, Crystal, relaxation calorimetry | 161.65
250 K, Crystal, relaxation calorimetry | 168.59
260 K, Crystal, relaxation calorimetry | 175.51
270 K, Crystal, relaxation calorimetry | 182.43
273.15 K, Crystal, relaxation calorimetry | 184.6
280 K, Crystal, relaxation calorimetry | 189.34
290 K, Crystal, relaxation calorimetry | 196.25
298.15 K, Crystal, relaxation calorimetry | 201.89
300 K, Crystal, relaxation calorimetry | 203.17
305 K, Crystal, Small sample (50 mg) DSC | 206.64
310 K, Crystal, Small sample (50 mg) DSC | 210.13
315 K, Crystal, Small sample (50 mg) DSC | 213.64
320 K, Crystal, Small sample (50 mg) DSC | 217.18
325 K, Crystal, Small sample (50 mg) DSC | 220.73
330 K, Crystal, Small sample (50 mg) DSC | 224.32
335 K, Crystal, Small sample (50 mg) DSC | 227.93
340 K, Crystal, Small sample (50 mg) DSC | 231.6
345 K, Crystal, Small sample (50 mg) DSC | 235.34
350 K, Crystal, Small sample (50 mg) DSC | 239.2
355 K, Crystal, Small sample (50 mg) DSC | 243.24
360 K, Crystal, Small sample (50 mg) DSC | 247.71
380 K, Liquid, Small sample (50 mg) DSC | 355.56
385 K, Liquid, Small sample (50 mg) DSC | 361.46
390 K, Liquid, Small sample (50 mg) DSC | 367.15
395 K, Liquid, Small sample (50 mg) DSC | 372.77
400 K, Liquid, Small sample (50 mg) DSC | 378.34
405 K, Liquid, Small sample (50 mg) DSC | 383.87
410 K, Liquid, Small sample (50 mg) DSC | 389.35
415 K, Liquid, Small sample (50 mg) DSC | 394.8

Settings | Normal melting temperature [°C]
[2], Crystal | 96.70

OC[C@@H](O)[C@@H](O)[C@H](O)[C@H](O)CO [D-mannitol]
Settings | Molar enthalpy of transition or fusion [kcal/mol]
[1] | 13.3

[2]
Settings | molar entropy [J/K/mol]
1 K, Crystal, relaxation calorimetry | 0.000631
2 K, Crystal, relaxation calorimetry | 0.002978
3 K, Crystal, relaxation calorimetry | 0.008828
4 K, Crystal, relaxation calorimetry | 0.02011
5 K, Crystal, relaxation calorimetry | 0.03893
6 K, Crystal, relaxation calorimetry | 0.06761
7 K, Crystal, relaxation calorimetry | 0.1087
8 K, Crystal, relaxation calorimetry | 0.165
9 K, Crystal, relaxation calorimetry | 0.2395
10 K, Crystal, relaxation calorimetry | 0.3351
15 K, Crystal, relaxation calorimetry | 1.202
20 K, Crystal, relaxation calorimetry | 2.796
25 K, Crystal, relaxation calorimetry | 5.087
30 K, Crystal, relaxation calorimetry | 7.955
35 K, Crystal, relaxation calorimetry | 11.26
40 K, Crystal, relaxation calorimetry | 14.89
45 K, Crystal, relaxation calorimetry | 18.76
50 K, Crystal, relaxation calorimetry | 22.8
55 K, Crystal, relaxation calorimetry | 26.97
60 K, Crystal, relaxation calorimetry | 31.23
65 K, Crystal, relaxation calorimetry | 35.57
70 K, Crystal, relaxation calorimetry | 39.94
75 K, Crystal, relaxation calorimetry | 44.34
80 K, Crystal, relaxation calorimetry | 48.76
85 K, Crystal, relaxation calorimetry | 53.19
90 K, Crystal, relaxation calorimetry | 57.61
95 K, Crystal, relaxation calorimetry | 62.02
100 K, Crystal, relaxation calorimetry | 66.42
110 K, Crystal, relaxation calorimetry | 75.17
120 K, Crystal, relaxation calorimetry | 83.84
130 K, Crystal, relaxation calorimetry | 92.42
140 K, Crystal, relaxation calorimetry | 100.91
150 K, Crystal, relaxation calorimetry | 109.31
160 K, Crystal, relaxation calorimetry | 117.62
170 K, Crystal, relaxation calorimetry | 125.86
180 K, Crystal, relaxation calorimetry | 134.02
190 K, Crystal, relaxation calorimetry | 142.11
200 K, Crystal, relaxation calorimetry | 150.14
210 K, Crystal, relaxation calorimetry | 158.13
220 K, Crystal, relaxation calorimetry | 166.06
230 K, Crystal, relaxation calorimetry | 173.95
240 K, Crystal, relaxation calorimetry | 181.8
250 K, Crystal, relaxation calorimetry | 189.63
260 K, Crystal, relaxation calorimetry | 197.43
270 K, Crystal, relaxation calorimetry | 205.2
273.15 K, Crystal, relaxation calorimetry | 207.65
280 K, Crystal, relaxation calorimetry | 212.96
290 K, Crystal, relaxation calorimetry | 220.71
298.15 K, Crystal, relaxation calorimetry | 227.01
300 K, Crystal, relaxation calorimetry | 228.44
305 K, Crystal, Small sample (50 mg) DSC | 232.31
310 K, Crystal, Small sample (50 mg) DSC | 236.19
315 K, Crystal, Small sample (50 mg) DSC | 240.08
320 K, Crystal, Small sample (50 mg) DSC | 243.99
325 K, Crystal, Small sample (50 mg) DSC | 247.9
330 K, Crystal, Small sample (50 mg) DSC | 251.82
335 K, Crystal, Small sample (50 mg) DSC | 255.74
340 K, Crystal, Small sample (50 mg) DSC | 259.67
345 K, Crystal, Small sample (50 mg) DSC | 263.61
350 K, Crystal, Small sample (50 mg) DSC | 267.55
355 K, Crystal, Small sample (50 mg) DSC | 271.49
360 K, Crystal, Small sample (50 mg) DSC | 275.43
365 K, Crystal, Small sample (50 mg) DSC | 279.37
370 K, Crystal, Small sample (50 mg) DSC | 283.31
375 K, Crystal, Small sample (50 mg) DSC | 287.25
380 K, Crystal, Small sample (50 mg) DSC | 291.19
385 K, Crystal, Small sample (50 mg) DSC | 295.12
390 K, Crystal, Small sample (50 mg) DSC | 299.04
395 K, Crystal, Small sample (50 mg) DSC | 302.96
400 K, Crystal, Small sample (50 mg) DSC | 306.87
405 K, Crystal, Small sample (50 mg) DSC | 310.78
410 K, Crystal, Small sample (50 mg) DSC | 314.68
415 K, Crystal, Small sample (50 mg) DSC | 318.58
420 K, Crystal, Small sample (50 mg) DSC | 322.47
425 K, Crystal, Small sample (50 mg) DSC | 326.38
430 K, Crystal, Small sample (50 mg) DSC | 330.31
435 K, Crystal, Small sample (50 mg) DSC | 334.63
450 K, Liquid, Small sample (50 mg) DSC | 463.49
455 K, Liquid, Small sample (50 mg) DSC | 469.61
460 K, Liquid, Small sample (50 mg) DSC | 475.21
465 K, Liquid, Small sample (50 mg) DSC | 480.73
470 K, Liquid, Small sample (50 mg) DSC | 486.2
475 K, Liquid, Small sample (50 mg) DSC | 491.61
480 K, Liquid, Small sample (50 mg) DSC | 496.96
485 K, Liquid, Small sample (50 mg) DSC | 502.25
490 K, Liquid, Small sample (50 mg) DSC | 507.49

Settings | Normal melting temperature [°C]
[2], Crystal | 167.47

OC[C@@H](O)[C@@H](O)CO [meso-1,2,3,4-butanetetrol]
Settings | Molar enthalpy of transition or fusion [kcal/mol]
[1] | 10.7

[2]
Settings | molar entropy [J/K/mol]
1 K, Crystal, relaxation calorimetry | 0.0005942
2 K, Crystal, relaxation calorimetry | 0.002515
3 K, Crystal, relaxation calorimetry | 0.007205
4 K, Crystal, relaxation calorimetry | 0.01633
5 K, Crystal, relaxation calorimetry | 0.03184
6 K, Crystal, relaxation calorimetry | 0.05604
7 K, Crystal, relaxation calorimetry | 0.09153
8 K, Crystal, relaxation calorimetry | 0.1411
9 K, Crystal, relaxation calorimetry | 0.2079
10 K, Crystal, relaxation calorimetry | 0.2944
15 K, Crystal, relaxation calorimetry | 1.077
20 K, Crystal, relaxation calorimetry | 2.466
25 K, Crystal, relaxation calorimetry | 4.373
30 K, Crystal, relaxation calorimetry | 6.67
35 K, Crystal, relaxation calorimetry | 9.244
40 K, Crystal, relaxation calorimetry | 12.02
45 K, Crystal, relaxation calorimetry | 14.94
50 K, Crystal, relaxation calorimetry | 17.96
55 K, Crystal, relaxation calorimetry | 21.05
60 K, Crystal, relaxation calorimetry | 24.19
65 K, Crystal, relaxation calorimetry | 27.37
70 K, Crystal, relaxation calorimetry | 30.57
75 K, Crystal, relaxation calorimetry | 33.79
80 K, Crystal, relaxation calorimetry | 37.01
85 K, Crystal, relaxation calorimetry | 40.23
90 K, Crystal, relaxation calorimetry | 43.44
95 K, Crystal, relaxation calorimetry | 46.65
100 K, Crystal, relaxation calorimetry | 49.83
110 K, Crystal, relaxation calorimetry | 56.17
120 K, Crystal, relaxation calorimetry | 62.43
130 K, Crystal, relaxation calorimetry | 68.62
140 K, Crystal, relaxation calorimetry | 74.74
150 K, Crystal, relaxation calorimetry | 80.8
160 K, Crystal, relaxation calorimetry | 86.79
170 K, Crystal, relaxation calorimetry | 92.72
180 K, Crystal, relaxation calorimetry | 98.61
190 K, Crystal, relaxation calorimetry | 104.44
200 K, Crystal, relaxation calorimetry | 110.22
210 K, Crystal, relaxation calorimetry | 115.97
220 K, Crystal, relaxation calorimetry | 121.68
230 K, Crystal, relaxation calorimetry | 127.36
240 K, Crystal, relaxation calorimetry | 133.01
250 K, Crystal, relaxation calorimetry | 138.64
260 K, Crystal, relaxation calorimetry | 144.24
270 K, Crystal, relaxation calorimetry | 149.82
273.15 K, Crystal, relaxation calorimetry | 151.57
280 K, Crystal, relaxation calorimetry | 155.38
290 K, Crystal, relaxation calorimetry | 160.92
298.15 K, Crystal, relaxation calorimetry | 165.43
300 K, Crystal, relaxation calorimetry | 166.46
305 K, Crystal, Small sample (50 mg) DSC | 169.22
310 K, Crystal, Small sample (50 mg) DSC | 172
315 K, Crystal, Small sample (50 mg) DSC | 174.78
320 K, Crystal, Small sample (50 mg) DSC | 177.57
325 K, Crystal, Small sample (50 mg) DSC | 180.36
330 K, Crystal, Small sample (50 mg) DSC | 183.15
335 K, Crystal, Small sample (50 mg) DSC | 185.94
340 K, Crystal, Small sample (50 mg) DSC | 188.74
345 K, Crystal, Small sample (50 mg) DSC | 191.53
350 K, Crystal, Small sample (50 mg) DSC | 194.32
355 K, Crystal, Small sample (50 mg) DSC | 197.11
360 K, Crystal, Small sample (50 mg) DSC | 199.9
365 K, Crystal, Small sample (50 mg) DSC | 202.7
370 K, Crystal, Small sample (50 mg) DSC | 205.49
375 K, Crystal, Small sample (50 mg) DSC | 208.29
380 K, Crystal, Small sample (50 mg) DSC | 211.1
385 K, Crystal, Small sample (50 mg) DSC | 213.99
390 K, Crystal, Small sample (50 mg) DSC | 217.51
405 K, Liquid, Small sample (50 mg) DSC | 333.59
410 K, Liquid, Small sample (50 mg) DSC | 338.24
415 K, Liquid, Small sample (50 mg) DSC | 342.55
420 K, Liquid, Small sample (50 mg) DSC | 346.8
425 K, Liquid, Small sample (50 mg) DSC | 351
430 K, Liquid, Small sample (50 mg) DSC | 355.15
435 K, Liquid, Small sample (50 mg) DSC | 359.26

Settings | Normal melting temperature [°C]
[2], Crystal | 121.67
